Holding throughout (experiment): inhibition of tumour cell growth, NCI panel, 48 h
Assay [1] relates to BT-549 breast.
In assay [2] the test system is CAKI-1 renal.
Assay [3] has as its system HCC-2998 colon.
The test system of assay [4] is HCT-116 colon.
In assay [5] the test system is HL-60(TB) leukemia.
Assay [6] relates to IGROV1 ovarian.
The subject of assay [7] is M14 melanoma.
Assay [8] concerns MDA-MB-231 breast.
The subject of assay [9] is MDA-MB-435.
Assay [10] relates to OVCAR-8 ovarian.
Assay [11] concerns SF-539 CNS.
Assay [12] deals with SK-OV-3 ovarian.
Assay [13] deals with TK-10 renal.
The test system of assay [14] is UACC-62 melanoma.

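Following 48 hours of exposure in 96-well plates, responses at five concentrations were used to interpolate endpoints linearly. TGI: total growth inhibition.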

Consider `Nc1cc(Cl)cc2cc(Cl)cnc12`, for which the TGI in [1], in assay [2], in assay [3], in assay [4], in assay [5] and in assay [6] was greater than 100 µM each time. Besides, the TGI in [7], in assay [8], in assay [9], in assay [10], in [11] and in assay [12] was greater than 100 µM throughout. Also, the TGI in [13] and in [14] was greater than 100 µM in each case.
Take `O=C1CC(Br)c2c(Br)sc(Br)c21` (stereo not drawn): the TGI was found to be 36.7 µM in assay [1]; 38.8 µM in assay [2]; 26.4 µM in [4]; 39.3 µM in [5]; 33.5 µM in assay [6]; 29.2 µM in assay [7]. Besides, the TGI in assay [8] was determined as 35.1 µM; in [9], 39.1 µM; in assay [10] it was 29.6 µM; in assay [11], 43.7 µM; in assay [12] it was 55.9 µM; in assay [13], 32.4 µM. In [14], this compound displayed a TGI of 30.8 µM.
On to `COC(=O)C(=O)C(C(=O)C(=O)Nc1ccccc1C(N)=O)c1nc2ccc(Cl)cc2[nH]c1=O` (stereo not drawn), for which the TGI in [1], in assay [2], in assay [3], in assay [4], in assay [5] and in [7] was greater than 100 µM each time. The TGI in [8], in [9], in [10], in assay [11], in assay [12] and in assay [14] was greater than 100 µM in each case.
Turning to `OCC1OC(NC(=S)NCCC(F)(F)C(F)(F)C(F)(F)C(F)(F)C(F)(F)C(F)(F)F)C(O)C(O)C1O` (stereo not drawn), the TGI in [1], in [2], in assay [3], in [4], in [5] and in assay [6] was greater than 100 µM each time. Besides, the TGI in assay [7], in assay [8], in assay [9], in [11], in assay [12] and in assay [13] was greater than 100 µM each time. Moreover, the TGI in [14] is greater than 100 µM.
Take `COc1cc(C2C3=C(COC3=O)OC(C)(C)Oc3cc4c(cc32)OCO4)cc(OC)c1O` (stereo not drawn): the TGI in [1] is greater than 100 µM; in [2] it was greater than 46.4 µM; in assay [3] it was 7.88 µM; in assay [4] it was greater than 20.8 µM; in assay [5], 1.49 µM; in [6] it was greater than 100 µM. The TGI in assay [7] is greater than 100 µM; in assay [8], 11.5 µM; in assay [9], 0.645 µM; in assay [10], greater than 100 µM; in assay [12], greater than 100 µM; in [13], greater than 100 µM.
Consider `CC(=O)OCC1OC(NC(=S)Nn2c(=O)[nH]c3ccccc3c2=O)C(OC(C)=O)C(OC(C)=O)C1OC(C)=O` (stereo not drawn), for which the TGI in assay [1], in [2], in [3], in assay [4], in assay [5] and in [6] was greater than 100 µM throughout. The TGI in [7], in assay [8], in assay [9], in [10], in assay [11] and in [12] was greater than 100 µM in each case. Further, the TGI in [14] was greater than 100 µM.
As to `C=CC(C)(C)n1cc(C2=C3OC(=O)C(c4cn(C(C)(C)C=C)c5ccccc45)=C3OC2=O)c2ccccc21`, the TGI in assay [1], in assay [2], in assay [3], in assay [4], in assay [5] and in assay [6] was greater than 100 µM in each case. Also, the TGI in [7], in [8], in [9], in [10], in [11] and in assay [13] was greater than 100 µM throughout.
On to `CC1(C)C2CC(O)C1(C)CC2=O` (stereo not drawn), for which the TGI in assay [1], in assay [3], in assay [4], in assay [5], in assay [6] and in [7] was greater than 100 µM each time. In addition, the TGI in assay [8], in [9], in assay [10], in assay [11], in assay [12] and in assay [13] was greater than 100 µM each time. Further, in [14], the TGI was greater than 100 µM.
For the compound `O=c1[nH]c(=O)n(C/C=C/CO)nc1Br`, the TGI in assay [1], in [2], in [3], in assay [4], in [5] and in assay [6] was greater than 100 µM in each case. Moreover, the TGI in assay [7], in assay [8], in assay [9], in [10], in assay [11] and in assay [13] was greater than 100 µM throughout. The same compound displayed a TGI in assay [14] greater than 100 µM.
For the compound `CC1=NN(c2cccc(S(=O)(=O)O)c2)C2(C1)C(Cl)C(=O)N2c1nc2ccccc2s1` (stereo not drawn), the TGI turned out to be 18.7 µM in assay [1]; 8.48 µM in [2]; 28.5 µM in assay [3]; 20.4 µM in assay [4]; 7.16 µM in assay [5]; 3.5 µM in assay [6]. Besides, the TGI was 24.6 µM in [7]; 23.1 µM in assay [8]; 21.2 µM in assay [9]; 19.1 µM in assay [10]; 24.2 µM in [12]; 27.3 µM in assay [13]. Moreover, the TGI in assay [14] came out at 19.1 µM.

The record behind these values is PubChem BioAssay (NCI).
